Source: ChEMBL document CHEMBL3991601, “The target landscape of clinical kinase drugs” (Science, 2017)
The source made the active and inactive calls. For most assays here, no stated cut-off is given here; in the data, actives have a measured Kd and inactives only a lower limit.

Legend:
[1] = biological target: AP2-associated protein kinase 1 (Homo sapiens, UniProt Q2M2I8)
[2] = biological target: T1, Serine/threonine-protein kinase LATS1 (Homo sapiens, UniProt O95835)
T1 sequence (O95835 whole entry): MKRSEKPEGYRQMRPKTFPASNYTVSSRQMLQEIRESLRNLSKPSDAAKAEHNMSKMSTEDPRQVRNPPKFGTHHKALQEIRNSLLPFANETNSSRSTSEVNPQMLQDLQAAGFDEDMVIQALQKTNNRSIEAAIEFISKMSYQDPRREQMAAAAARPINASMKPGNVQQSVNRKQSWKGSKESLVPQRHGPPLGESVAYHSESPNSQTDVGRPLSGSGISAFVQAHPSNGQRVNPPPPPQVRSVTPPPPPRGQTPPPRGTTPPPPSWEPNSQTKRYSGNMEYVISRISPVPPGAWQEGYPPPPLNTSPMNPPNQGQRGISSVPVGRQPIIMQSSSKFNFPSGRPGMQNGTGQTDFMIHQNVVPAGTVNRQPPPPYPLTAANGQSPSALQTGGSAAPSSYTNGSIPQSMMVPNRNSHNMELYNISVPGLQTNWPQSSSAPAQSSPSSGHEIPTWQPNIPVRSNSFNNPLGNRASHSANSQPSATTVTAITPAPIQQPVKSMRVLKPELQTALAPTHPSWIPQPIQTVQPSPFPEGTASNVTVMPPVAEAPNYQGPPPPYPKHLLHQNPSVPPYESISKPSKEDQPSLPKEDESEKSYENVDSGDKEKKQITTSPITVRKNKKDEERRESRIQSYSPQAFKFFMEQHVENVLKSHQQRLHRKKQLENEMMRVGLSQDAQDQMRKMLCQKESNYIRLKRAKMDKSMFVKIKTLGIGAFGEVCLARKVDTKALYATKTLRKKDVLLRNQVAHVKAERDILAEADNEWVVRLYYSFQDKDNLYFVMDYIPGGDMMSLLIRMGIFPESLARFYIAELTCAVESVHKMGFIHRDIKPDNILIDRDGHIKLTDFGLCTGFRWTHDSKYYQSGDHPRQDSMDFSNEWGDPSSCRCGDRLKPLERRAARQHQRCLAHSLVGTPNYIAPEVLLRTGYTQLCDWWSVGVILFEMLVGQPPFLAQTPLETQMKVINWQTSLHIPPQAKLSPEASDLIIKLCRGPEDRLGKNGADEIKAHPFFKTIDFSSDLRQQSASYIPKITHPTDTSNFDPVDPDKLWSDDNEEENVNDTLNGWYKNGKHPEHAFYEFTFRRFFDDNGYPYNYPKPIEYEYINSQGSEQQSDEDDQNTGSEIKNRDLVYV

[3] = biological target: Mitogen-activated protein kinase 10 (Homo sapiens, UniProt P53779)
[4] = biological target: T2, Ras-related protein Rab-10 (Homo sapiens, UniProt P61026)
T2 sequence (P61026 whole entry): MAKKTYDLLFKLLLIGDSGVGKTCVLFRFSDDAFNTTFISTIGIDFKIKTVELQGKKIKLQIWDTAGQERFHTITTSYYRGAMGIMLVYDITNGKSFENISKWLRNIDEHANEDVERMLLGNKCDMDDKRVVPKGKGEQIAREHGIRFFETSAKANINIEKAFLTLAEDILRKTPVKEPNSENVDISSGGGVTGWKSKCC

[5] = biological target: BMP-2-inducible protein kinase (Homo sapiens, UniProt Q9NSY1)
[6] = biological target: Macrophage-stimulating protein receptor (Homo sapiens, UniProt Q04912)
[7] = biological target: Cyclin-dependent kinase 2 (Homo sapiens, UniProt P24941)
[8] = biological target: T3, Serine/threonine-protein kinase D3 (Homo sapiens, UniProt O94806)
T3 sequence (O94806 whole entry): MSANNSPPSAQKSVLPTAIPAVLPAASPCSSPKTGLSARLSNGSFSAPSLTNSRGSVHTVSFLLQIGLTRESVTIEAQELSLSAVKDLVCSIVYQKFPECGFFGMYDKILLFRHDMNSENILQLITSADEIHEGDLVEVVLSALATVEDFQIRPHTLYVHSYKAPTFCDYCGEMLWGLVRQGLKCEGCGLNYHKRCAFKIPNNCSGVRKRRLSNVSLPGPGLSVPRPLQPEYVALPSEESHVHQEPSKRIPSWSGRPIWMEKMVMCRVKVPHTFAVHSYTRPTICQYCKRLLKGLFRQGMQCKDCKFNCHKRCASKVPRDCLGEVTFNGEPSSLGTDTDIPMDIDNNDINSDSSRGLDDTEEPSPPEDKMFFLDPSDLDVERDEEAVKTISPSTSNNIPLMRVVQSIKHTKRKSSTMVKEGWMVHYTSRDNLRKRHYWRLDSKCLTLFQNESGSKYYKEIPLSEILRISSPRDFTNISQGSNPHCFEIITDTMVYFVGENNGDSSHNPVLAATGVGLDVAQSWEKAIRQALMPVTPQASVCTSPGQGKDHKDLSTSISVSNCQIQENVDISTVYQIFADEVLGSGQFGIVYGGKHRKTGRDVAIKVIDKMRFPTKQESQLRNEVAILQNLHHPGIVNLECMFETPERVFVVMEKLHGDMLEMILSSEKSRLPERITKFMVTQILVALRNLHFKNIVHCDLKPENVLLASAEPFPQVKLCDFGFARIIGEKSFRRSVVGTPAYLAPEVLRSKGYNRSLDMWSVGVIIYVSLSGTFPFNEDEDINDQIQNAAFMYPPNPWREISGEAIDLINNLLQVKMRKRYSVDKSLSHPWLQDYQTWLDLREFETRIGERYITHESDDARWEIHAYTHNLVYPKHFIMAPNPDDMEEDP

Mitogen-activated protein kinase 10, sequence (P53779 whole entry): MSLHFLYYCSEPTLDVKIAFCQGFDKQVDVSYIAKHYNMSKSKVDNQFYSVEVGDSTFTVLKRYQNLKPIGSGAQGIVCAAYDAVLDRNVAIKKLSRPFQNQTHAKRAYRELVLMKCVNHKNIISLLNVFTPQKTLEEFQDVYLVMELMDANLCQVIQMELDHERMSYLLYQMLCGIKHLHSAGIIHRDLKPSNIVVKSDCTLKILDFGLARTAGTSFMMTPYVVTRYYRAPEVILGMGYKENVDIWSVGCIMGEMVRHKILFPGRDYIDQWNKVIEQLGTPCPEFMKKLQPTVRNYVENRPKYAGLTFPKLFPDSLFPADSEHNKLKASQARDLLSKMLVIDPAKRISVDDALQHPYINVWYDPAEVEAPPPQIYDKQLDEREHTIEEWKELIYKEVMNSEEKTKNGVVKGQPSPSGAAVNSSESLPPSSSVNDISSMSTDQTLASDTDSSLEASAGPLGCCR
AP2-associated protein kinase 1, sequence (Q2M2I8 whole entry): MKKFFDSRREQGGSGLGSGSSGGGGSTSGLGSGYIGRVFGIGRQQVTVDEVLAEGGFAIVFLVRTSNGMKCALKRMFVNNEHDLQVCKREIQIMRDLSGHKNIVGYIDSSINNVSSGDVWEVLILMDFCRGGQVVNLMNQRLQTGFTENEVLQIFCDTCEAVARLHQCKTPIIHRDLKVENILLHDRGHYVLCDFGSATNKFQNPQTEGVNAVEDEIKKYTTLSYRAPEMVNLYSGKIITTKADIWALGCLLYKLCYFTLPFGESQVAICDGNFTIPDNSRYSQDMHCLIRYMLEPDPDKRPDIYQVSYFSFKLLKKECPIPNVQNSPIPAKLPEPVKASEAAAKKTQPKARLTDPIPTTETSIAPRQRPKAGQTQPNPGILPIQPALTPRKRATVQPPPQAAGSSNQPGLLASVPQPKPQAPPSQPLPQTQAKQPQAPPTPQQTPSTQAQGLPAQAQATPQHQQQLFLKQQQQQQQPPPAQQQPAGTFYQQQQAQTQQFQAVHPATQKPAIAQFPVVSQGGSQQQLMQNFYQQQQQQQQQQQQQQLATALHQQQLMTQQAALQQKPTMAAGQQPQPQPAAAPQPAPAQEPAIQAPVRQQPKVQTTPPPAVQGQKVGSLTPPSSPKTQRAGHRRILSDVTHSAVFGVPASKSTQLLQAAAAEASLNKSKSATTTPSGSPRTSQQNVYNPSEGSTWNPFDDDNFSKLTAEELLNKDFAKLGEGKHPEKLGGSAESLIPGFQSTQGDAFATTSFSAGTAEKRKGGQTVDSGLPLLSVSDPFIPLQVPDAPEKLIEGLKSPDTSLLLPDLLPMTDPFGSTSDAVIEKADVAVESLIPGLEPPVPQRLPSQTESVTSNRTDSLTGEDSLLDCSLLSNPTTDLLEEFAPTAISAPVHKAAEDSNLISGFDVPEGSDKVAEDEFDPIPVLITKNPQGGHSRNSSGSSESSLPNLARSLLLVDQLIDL
Macrophage-stimulating protein receptor, sequence (Q04912 25-304 limits assumed): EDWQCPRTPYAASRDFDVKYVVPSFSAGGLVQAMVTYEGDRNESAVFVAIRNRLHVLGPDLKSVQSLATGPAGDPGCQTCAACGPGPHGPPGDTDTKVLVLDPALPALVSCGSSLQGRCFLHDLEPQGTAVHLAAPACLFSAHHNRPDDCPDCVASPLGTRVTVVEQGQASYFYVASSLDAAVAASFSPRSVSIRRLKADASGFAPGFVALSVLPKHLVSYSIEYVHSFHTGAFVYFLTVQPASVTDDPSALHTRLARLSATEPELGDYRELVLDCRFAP
Macrophage-stimulating protein receptor, sequence (Q04912 310-1400 limits assumed): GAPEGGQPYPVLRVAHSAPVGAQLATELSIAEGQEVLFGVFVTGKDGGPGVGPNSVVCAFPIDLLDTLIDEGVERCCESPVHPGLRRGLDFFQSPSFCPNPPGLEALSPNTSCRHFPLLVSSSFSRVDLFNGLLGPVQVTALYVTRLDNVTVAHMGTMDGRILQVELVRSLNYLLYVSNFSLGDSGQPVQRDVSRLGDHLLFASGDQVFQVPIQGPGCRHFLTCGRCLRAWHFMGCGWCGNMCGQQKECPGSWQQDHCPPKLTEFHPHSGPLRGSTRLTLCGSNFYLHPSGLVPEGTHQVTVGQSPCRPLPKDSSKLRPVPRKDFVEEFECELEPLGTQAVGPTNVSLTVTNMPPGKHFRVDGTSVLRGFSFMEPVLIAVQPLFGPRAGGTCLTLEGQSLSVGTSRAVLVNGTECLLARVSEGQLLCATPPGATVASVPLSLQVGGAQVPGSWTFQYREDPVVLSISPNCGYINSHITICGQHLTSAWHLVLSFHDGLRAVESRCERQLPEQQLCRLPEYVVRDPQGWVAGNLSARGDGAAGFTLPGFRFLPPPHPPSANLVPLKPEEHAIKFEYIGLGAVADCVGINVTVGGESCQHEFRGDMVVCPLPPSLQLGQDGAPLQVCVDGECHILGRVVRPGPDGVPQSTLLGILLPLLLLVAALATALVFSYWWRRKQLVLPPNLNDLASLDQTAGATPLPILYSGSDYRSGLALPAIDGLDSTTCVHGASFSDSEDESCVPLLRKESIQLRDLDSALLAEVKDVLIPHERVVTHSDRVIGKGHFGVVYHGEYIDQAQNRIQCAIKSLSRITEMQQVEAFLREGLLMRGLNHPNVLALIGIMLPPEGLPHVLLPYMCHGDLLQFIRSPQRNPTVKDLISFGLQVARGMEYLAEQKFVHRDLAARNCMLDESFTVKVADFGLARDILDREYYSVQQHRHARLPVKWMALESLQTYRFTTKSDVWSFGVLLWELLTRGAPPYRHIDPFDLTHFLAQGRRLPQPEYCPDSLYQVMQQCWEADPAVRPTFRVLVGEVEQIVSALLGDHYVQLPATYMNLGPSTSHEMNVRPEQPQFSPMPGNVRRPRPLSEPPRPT
BMP-2-inducible protein kinase, sequence (Q9NSY1 whole entry): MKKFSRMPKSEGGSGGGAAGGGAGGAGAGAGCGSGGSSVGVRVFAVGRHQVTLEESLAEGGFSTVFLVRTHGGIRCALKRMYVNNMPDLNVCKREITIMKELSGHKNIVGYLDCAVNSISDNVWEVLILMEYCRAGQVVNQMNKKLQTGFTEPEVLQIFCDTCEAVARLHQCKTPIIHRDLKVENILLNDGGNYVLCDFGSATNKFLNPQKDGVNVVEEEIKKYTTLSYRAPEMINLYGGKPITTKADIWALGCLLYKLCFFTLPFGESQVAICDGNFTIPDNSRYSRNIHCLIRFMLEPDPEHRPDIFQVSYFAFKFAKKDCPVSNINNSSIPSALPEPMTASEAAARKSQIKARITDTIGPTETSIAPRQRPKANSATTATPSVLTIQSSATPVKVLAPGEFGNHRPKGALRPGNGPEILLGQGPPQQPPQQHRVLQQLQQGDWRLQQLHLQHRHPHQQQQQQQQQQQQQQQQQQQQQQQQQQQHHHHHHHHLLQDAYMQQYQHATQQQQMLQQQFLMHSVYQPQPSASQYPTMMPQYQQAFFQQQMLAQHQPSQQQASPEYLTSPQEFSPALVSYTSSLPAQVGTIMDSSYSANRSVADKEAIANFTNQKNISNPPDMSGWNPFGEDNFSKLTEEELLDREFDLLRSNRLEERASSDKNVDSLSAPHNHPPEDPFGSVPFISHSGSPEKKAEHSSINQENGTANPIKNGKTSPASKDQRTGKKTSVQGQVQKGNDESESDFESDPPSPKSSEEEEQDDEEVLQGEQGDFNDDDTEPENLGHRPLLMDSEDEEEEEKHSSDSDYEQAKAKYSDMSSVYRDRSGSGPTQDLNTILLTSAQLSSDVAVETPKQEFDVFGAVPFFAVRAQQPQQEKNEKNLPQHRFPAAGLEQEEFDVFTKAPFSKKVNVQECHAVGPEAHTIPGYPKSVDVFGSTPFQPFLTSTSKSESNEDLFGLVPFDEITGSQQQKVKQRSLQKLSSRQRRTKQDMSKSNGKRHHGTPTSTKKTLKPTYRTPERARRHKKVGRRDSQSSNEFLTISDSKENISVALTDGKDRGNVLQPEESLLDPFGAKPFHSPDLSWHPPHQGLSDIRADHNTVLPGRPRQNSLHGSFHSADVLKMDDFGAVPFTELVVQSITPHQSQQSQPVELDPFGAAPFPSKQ

Kd [1]	Kd [2]	Kd [3]	Kd [4]	Kd [5]	Kd [6]	Kd [7]	Kd [8]	Compound
> 30 µM (inactive)	> 30 µM (inactive)	1.62 µM	> 30 µM (inactive)	> 30 µM (inactive)	> 30 µM (inactive)	> 30 µM (inactive)	> 30 µM (inactive)	COc1cccc2cc(-c3nc([C@H]4CC[C@H](C(=O)O)CC4)n4ncnc(N)c34)[nH]c12 [OSI-027]
> 30 µM (inactive)	> 30 µM (inactive)	> 30 µM (inactive)	> 30 µM (inactive)	> 30 µM (inactive)	> 30 µM (inactive)	> 30 µM (inactive)	> 30 µM (inactive)	O=C(Nc1ccc(OC(F)(F)F)cc1)c1sccc1NCc1ccnc2ccccc12 [OSI-930]
13.7 µM (active)	> 30 µM (inactive)	> 30 µM (inactive)	> 30 µM (inactive)	> 30 µM (inactive)	> 30 µM (inactive)	> 30 µM (inactive)	> 30 µM (inactive)	FC(F)(F)c1ccc(CNc2ccc(Cc3c[nH]c4ncc(Cl)cc34)cn2)cn1 [PEXIDARTINIB]
> 30 µM (inactive)	> 30 µM (inactive)	> 30 µM (inactive)	> 30 µM (inactive)	> 30 µM (inactive)	> 30 µM (inactive)	> 30 µM (inactive)	> 30 µM (inactive)	O=C(NC[C@H](O)CO)c1ccncc1Nc1ccc(I)cc1F [PIMASERTIB]
> 30 µM (inactive)	> 30 µM (inactive)	> 30 µM (inactive)	> 30 µM (inactive)	> 30 µM (inactive)	> 30 µM (inactive)	> 30 µM (inactive)	> 30 µM (inactive)	C=CC(=O)Nc1cccc(Nc2nc(Nc3ccc(N4CCN(C(C)=O)CC4)cc3OC)ncc2C(F)(F)F)c1 [ROCILETINIB]
> 30 µM (inactive)	> 30 µM (inactive)	> 30 µM (inactive)	> 30 µM (inactive)	> 30 µM (inactive)	> 30 µM (inactive)	1.69 µM (active)	> 30 µM (inactive)	O=C(O)c1ccc2c(c1)nc(Nc1cccc(Cl)c1)c1ccncc12 [SILMITASERTIB]
2.44 µM (active)	> 30 µM (inactive)	> 30 µM (inactive)	> 30 µM (inactive)	10.9 µM (active)	> 30 µM (inactive)	> 30 µM (inactive)	> 30 µM (inactive)	Cc1cc(C(=O)Nc2cc(Oc3ccc4nc(NC(=O)C5CC5)cn4n3)ccc2C)n(C)n1 [TAK-593]
> 30 µM (inactive)	> 30 µM (inactive)	> 30 µM (inactive)	> 30 µM (inactive)	> 30 µM (inactive)	> 30 µM (inactive)	> 30 µM (inactive)	> 30 µM (inactive)	Cn1c(=O)c(F)c(Nc2ccc(I)cc2F)c2c(=O)n(C[C@@H](O)CO)cnc21 [TAK-733]
> 30 µM (inactive)	> 30 µM (inactive)	> 30 µM (inactive)	> 30 µM (inactive)	> 30 µM (inactive)	> 30 µM (inactive)	> 30 µM (inactive)	> 30 µM (inactive)	CNC(=O)c1cc(COc2nnc(Nc3ccc(Cl)cc3)c3ccoc23)ccn1 [TELATINIB]
> 30 µM (inactive)	> 30 µM (inactive)	> 30 µM (inactive)	> 30 µM (inactive)	> 30 µM (inactive)	> 30 µM (inactive)	> 30 µM (inactive)	> 30 µM (inactive)	Cc1cc(-c2cc(OC(=O)c3ccccc3)ccc2Cl)cc2nnc(Nc3ccc(OCCN4CCCC4)cc3)nc12 [TG100-801]
> 30 µM (inactive)	> 30 µM (inactive)	> 30 µM (inactive)	> 30 µM (inactive)	> 30 µM (inactive)	> 30 µM (inactive)	> 30 µM (inactive)	> 30 µM (inactive)	C[C@@H]1COC(Nc2ccc3ncnc(Nc4ccc(OCc5nccs5)c(Cl)c4)c3c2)=N1 [VARLITINIB]
> 30 µM (inactive)	> 30 µM (inactive)	> 30 µM (inactive)	> 30 µM (inactive)	> 30 µM (inactive)	> 30 µM (inactive)	> 30 µM (inactive)	> 30 µM (inactive)	CNC(=O)c1cccc(-c2ccc3c(N4CCOC[C@@H]4C)nc(N4CCOC[C@@H]4C)nc3n2)c1 [VISTUSERTIB]

Compound	Kd [1]	Kd [2]	Kd [3]	Kd [4]	Kd [5]	Kd [6]	Kd [7]	Kd [8]
C=CC(=O)Nc1cc(Nc2nccc(-c3cn(C)c4ccccc34)n2)c(OC)cc1N(C)CCN(C)C [OSIMERTINIB]	> 30 µM (inactive)	> 30 µM (inactive)	> 30 µM (inactive)	> 30 µM (inactive)	> 30 µM (inactive)	> 30 µM (inactive)	> 30 µM (inactive)	> 30 µM (inactive)
COc1cc(F)c(F)c(Nc2ccc(I)cc2F)c1NS(=O)(=O)C1(C[C@H](O)CO)CC1 [REFAMETINIB]	> 30 µM (inactive)	> 30 µM (inactive)	0.036 µM (active)	> 30 µM (inactive)	> 30 µM (inactive)	> 30 µM (inactive)	> 30 µM (inactive)	> 30 µM (inactive)
COCCN1CCN(Cc2ccc(-c3n[nH]c4c3C(=O)c3c(NC(=O)NN5CCOCC5)cccc3-4)cc2)CC1 [RGB-286638]	0.022 µM (active)	> 30 µM (inactive)	0.011 µM	> 30 µM (inactive)	0.008 µM (active)	> 30 µM (inactive)	0.072 µM (active)	0.297 µM (active)
C=CCN(/C=C1/C(=O)O[C@H](COC)[C@@]2(C)C1=C(O)C(=O)C1=C2[C@H](OC(C)=O)C[C@]2(C)C(=O)CC[C@@H]12)CC=C [SONOLISIB]	> 30 µM (inactive)	> 30 µM (inactive)	> 30 µM (inactive)	> 30 µM (inactive)	> 30 µM (inactive)	> 30 µM (inactive)	> 30 µM (inactive)	> 30 µM (inactive)
CN1CCN(c2nc(C3=C(c4c[nH]c5ccccc45)C(=O)NC3=O)c3ccccc3n2)CC1 [SOTRASTAURIN]	> 30 µM (inactive)	> 30 µM (inactive)	> 30 µM (inactive)	> 30 µM (inactive)	> 30 µM (inactive)	> 30 µM (inactive)	> 30 µM (inactive)	> 30 µM (inactive)
